Data taken from US6338963B1, “Use of carbon monoxide dependent guanylyl cyclase modifiers to stimulate neuritogenesis” (NeoTherapeutics, Inc., priority 1994, dated 2002).
Marks after values point to notes of the source that are not given here.

Experiments:
[1] = system: cGMP levels in PC12 cells; assay: cGMP levels in PC12 cells (radioimmunoassay); format: cell-based, rat; conditions: NGF-primed PC12 cells
Description: Initially, PC-12 cells were primed with 40 ng/ml NGF for 3 days in low serum medium (1.5% horse serum+5% fetal calf serum). Cells were seeded onto assay plates in low serum medium containing 40 ng/ml NGF and incubated for 1 hour. The medium was changed to low arginine medium (80 μM) with no serum and NGF and papaverine ([…]) where indicated. Test compounds were added for the indicated time and the reaction was stopped by adding 5% TCA containing 10,000 dpm of ^3H-cGMP. cGMP was assayed by the radioimmunoassay method of Maurice (Mol. Pharmacol. 37: 671-681, 1990). TCA was purified by adding powdered charcoal (5 g) and filtering the mixture through Whatman #1 paper. This removed contaminants in the TCA that otherwise interfere with the radioimmunoassay (RIA) of cGMP.
It was necessary to purify the cGMP from cAMP and other contaminants before radioimmunoassay since these other materials can interfere with the assay. Briefly, the TCA solution was applied to Dowex columns (50W-8X, 200-400 mesh) and eluted. A neutral alumina column was then placed under each Dowex column. The cGMP was eluted from the Dowex columns into neutral alumina columns by adding 4 mL of 0.05 M HCl to each Dowex column. The neutral alumina columns were then sequentially rinsed with 2 ml of HCl, 4 mL water and finally with 0.2 M sodium acetate (pH 6.2). The cGMP collected for the RIA eluted in 1 ML of sodium acetate with a recovery between 50-65%. The cGMP was assayed using a Dupont RIA kit.

[2] = system: cultured neurons from rat cerebral cortex; assay: NMDA-induced toxicity in cultured rat cortical neurons, astrocyte conditioned medium; format: cell-based
Description: In these experiments, cultured neurons were prepared from rat cerebral cortex. In these cultures the NMDA pulse (100 μM for 10 min) provoked about 80% neuronal death (measured by Trypan blue cell staining or LDH activity). Separately, cultured astrocytes were treated for 6 hours with AIT-082. Then, the medium containing the drug was replaced with fresh medium without the drug and the astrocyte cultures were maintained in this medium for the next 24 hours. This medium represented the CM and was added to neurons soon after the toxic pulse with NMDA. The addition of CM partly counteracted the toxic effects caused by NMDA, reducing the neuronal damage by about 50%. If the medium was boiled for 20 min at 100° C. prior to addition to NMDA-damaged neurons, it completely lost the protective activity. […] To verify whether the neuroprotection caused by AIT-082 was ascribable to the production of TGFβ2 or NGF, antibodies to TGFβ2 or to NGF (100 ng/ml) were added together with CM.
Conversely, when DPCPX (100 nm) was added to astrocyte cultures together with AIT-082, the neuroprotective effect of the resulting CM deriving from the culture of the astrocytes with AIT-082 was reduced by only 20%, as compared to the neuroprotective effect of CM derived from astrocytes exposed to AIT-082 alone (assumed as equal to 100%).

NGF = NGF release from rat cultured astrocytes (ELISA); format: cell-based; conditions: for effect of inhibitor on AIT-082-induced accumulation of NGF: 100 nm wortmannin, 10 μM PD098,059 or 500 ng/ml CHX added 30 min before and kept 24 hours with 100 μM AIT-082
Description: The dose response for AIT-082 and guanosine on nerve growth factor and S100β protein release from rat culture astrocytes is shown in FIG. 30. NGF was assayed by a double-site ELISA, using a monoclonal anti-NGF antibody, coupled or not to β-galactosidase according to the method of I. D. Laviada et al., “Phosphatidylcholine-Phospholipase C Mediates the Induction of Nerve Growth Factor in Cultured Glial Cells,” FEBS Lett. 364: 301-304 (1995).
(§1) The NGF and S100β protein were measured by removing the cultured medium for the ELISA assays at each indicated time point.
(§2) NGF and TGFβ2 levels were assayed in the culture medium of the astrocytes by specific ELISA assays using kits from Roche (Germany) and Promega (USA) respectively. NGF basal levels were 56.3±3.2 pg/ml. TGFβ2 levels were 9.1±0.06 pg/ml.
(§3) In FIG. 61, the dose-response curves of NGF and TGFβ2 release from rat cultured astrocytes as the result of exposure to AIT-082 are shown.

TGFβ2 = TGFβ2 release from rat cultured astrocytes (ELISA); format: cell-based; conditions: 100 nm wortmannin, 10 μM PD098,059 or 500 ng/ml CHX added 30 min before and kept 24 hours with 100 μM AIT-082
Description: as §2, §3

S100β protein = S100β protein release from rat cultured astrocytes (ELISA); format: cell-based; conditions: cycloheximide 0.5 μg/ml, AIT-082 100 μ
Description: The S100β protein was measured by using an ELISA as described in A. Aurell et al., “The S-100 Protein in Cerebrospinal Fluid: A Simple ELISA Method,” J.Neurol. Sci. 89: 157-164 (1989).
as §1

Swiss Webster mice [3] = assay: Win-shift T-maze memory test, Swiss Webster mice; format: in vivo; conditions: 90-second inter-trial interval, PHY 0.125 mg/kg i.p.
Description: Male Swiss Webster mice six months (young adult) and eleven months (old) of age, obtained from the National Institute on Aging, were maintained in individual cages, on a […] light/dark cycle with continuous access to water. Food was limited so that the mice stabilized at 80% of free feeding weight. Mice were weighed and handled daily for one week. The win-shift model was run as described in the literature and consists of a T-maze in which the correct response alternates after each correct trial. The interval between trials is varied and allows for the determination of the longest period between trials that a subject can remember the correct response on the previous trial. This allows the measure of the duration of the memory trace. […] The reward goal box is alternated after each correct trial. Ten trials per mouse are run each day. […] The latency time to leave the start box is recorded as a measure of motivation, the running time (the time from leaving the start box to reaching the goal box) is recorded as a measure of performance, and the number of correct responses as a measure of memory.
The drugs used in this example are 4-((3-(1,6-dihydro-6-oxo-9-purin-9-yl)-1-oxopropyl)amino) benzoic acid (AIT-082), as an exemplary potassium salt, tacrine hydrochloride (tetrahydroaminoacridine, THA, Sigma Chemical Co., St. Louis, Mo.), and physostigmine, hemisulfate salt (PHY, Sigma Chemical Co., St. Louis, Mo.). The drugs were dissolved in saline and prepared fresh daily. All injections were made at a volume of 0.1 ml/10 grams body weight. When testing drug effects, intraperitoneal (i.p.) injections of AIT-082 or THA were made one hour prior to the start of testing. Due to its shorter duration of action, PHY was injected 30 minutes prior to testing. Control subjects receive a similar injection of saline (vehicle).
(§4) To determine the duration of the memory trace, subjects were administered drug or saline and 30 minutes (PHY) or 1 hour (AIT-082 or THA) later they were given a single reference run with the milk reward in both goal boxes. After the indicated inter-trial delay, subjects were returned to the start box and given the first test trial with the milk reward only in the goal box opposite to the one entered on the previous correct trial. The subjects were given 10 trials with the reward alternating only after correct responses.
To determine if tolerance to the biological effects of AIT-082 developed, drug or saline was administered daily for 18 days prior to the testing in the standard win-shift paradigm.

C57BL/6 mice [4] = assay: Win-shift duration of memory trace, C57BL/6 mice; format: in vivo; conditions: for Correct (Mean score ± S.E.) / No. above chance/Total #: Physostigmine 0.125 mg/kg
Description: as §4
Previous work has established that normal adult Swiss Webster mice have a memory trace duration of 60 seconds in the win-shift paradigm which may be increased by the administration of AIT-082.

Swiss Webster mice [5] = assay: Win-shift test, Swiss Webster mice with age-induced memory deficits; format: in vivo; conditions: PHY 0.125 mg/kg
Description: Twelve-month old male Swiss Webster mice were screened for performance in the win-shift foraging test. Subjects were tested at various time delays, beginning at 10 seconds and increasing the inter-trial time interval to 30, 60, 90 and 120 seconds.
Subjects with severe impairment could not remember the correct response at 10 seconds while subjects with mild deficit could remember the correct response with a 30 second inter-trial interval but not at 60 seconds. Subjects with a moderate deficit could remember the correct response with a 10 second inter-trial interval but not […] at 30 seconds. Thus, the win-shift model can detect age-induced impairments in working memory. As will be appreciated by those skilled in the art, this observation is important since it provides the ability to use age-matched subjects with varying degrees of impairment for evaluation of potential therapeutic agents.
Following the establishment of a baseline, six subjects in each of the three groups were treated with AIT-82 (30 mg/kg, one hour before testing) or physostigmine (0.125 mg/kg, 30 minutes before testing) using the win-shift foraging test. The results are presented in Table L directly below and graphically represented in FIG. 9.

C57BL/6 mice [6] = assay: Win-shift test, C57BL/6 mice with age-induced memory deficits; format: in vivo; conditions: for subjects performing significantly above chance/total number of subjects: PHY 0.125 mg/kg
Description: Twelve-month old male C57BL/6 mice were screened for performance in the win-shift foraging test. Subjects were tested at various inter-trial time intervals. Subjects who could not perform to criteria (>60% correct) at 10 seconds delay were classified as having a severe deficit. Subjects who performed to criteria at 10 seconds but not at 30 seconds were classified as having a moderate degree of deficit and subjects who performed to criteria at 30 seconds but not at 60 seconds were classified as having mild deficit. As in Example 21, subjects in each group were treated with either AIT-082 or PHY to determine the extent to which the working memory trace was prolonged. The results are presented in Table M directly below and graphically represented in FIG. 10.

[7] = Moderate deficit, interval 30 sec
[8] = Moderate deficit, interval 60 sec
[9] = Severe deficit, interval <10 sec

CNc1ccc2oc(C[C@H]3O[C@@]4(CC[C@H]3C)O[C@H]([C@H](C)C(=O)c3ccc[nH]3)[C@H](C)C[C@H]4C)nc2c1C(=O)O [A23187, reference compound]
cGMP in PC12 cells [1]: failed to elicit an increase in cGMP

CCCn1c(=O)c2[nH]c(C3CCCC3)nc2n(CCC)c1=O [DPCPX, 8-cyclopentyl-1,3-dipropylxanthine]
reduction of neuroprotective effect of resulting CM ([2]; DPCPX 100 nm added to astrocyte cultures together with AIT-082): 20% | effect on neuroprotective effect of astrocyte-derived CM ([2]; DPCPX 100 nm added with CM to injured cortical neurons): did not modify the neuroprotective effect

COc1cccc(-c2cc(=O)c3ccccc3o2)c1N [PD098,059, reference compound]
effect of inhibitor on AIT-082-induced accumulation of NGF (NGF): partly inhibited | effect of inhibitor on AIT-082-induced accumulation of TGFβ2 (TGFβ2): partly inhibited

C[C@@H]1C[C@@H]([C@H](O)CC2CC(=O)NC(=O)C2)C(=O)[C@@H](C)C1 [cycloheximide, reference compound]
effect of inhibitor on AIT-082-induced accumulation of NGF (NGF): partly inhibited | effect of cycloheximide on AIT-082-evoked release of NGF (NGF; cycloheximide 0.5 μg/ml, AIT-082 100 μ): abolished the stimulatory effect of AIT-082 | effect of cycloheximide on AIT-082-evoked accumulation of S100β protein (S100β protein): only slightly modified | effect of inhibitor on AIT-082-induced accumulation of TGFβ2 (TGFβ2): partly inhibited

physostigmine, hemisulfate salt [reference compound]
Win-shift Memory Test, Correct responses (Swiss Webster mice [3]): 6.5 Correct responses/10 trials | Correct (Mean score ± S.E.) (C57BL/6 mice [4]; inter-trial interval 180 sec): 65 ± 16 | No. above chance/Total # (C57BL/6 mice [4]; inter-trial interval 180 sec): 3/6 | Correct (Mean score ± S.E.) (C57BL/6 mice [4]; inter-trial interval 210 sec): 53 ± 9 | No. above chance/Total # (C57BL/6 mice [4]; inter-trial interval 210 sec): 1/6 | duration of the memory trace (C57BL/6 mice [4]; physostigmine, untreated 120 seconds): 180 s | subjects performing significantly above chance/total number of subjects (Swiss Webster mice [5]; Mild deficit, interval 60 sec): 5/6* | subjects performing significantly above chance/total number of subjects (Swiss Webster mice [5]; Mild deficit, interval 90 sec): 3/6 | subjects performing significantly above chance/total number of subjects (Swiss Webster mice [5]; Mild deficit, interval 120 sec): 2/6 | subjects performing significantly above chance/total number of subjects (Swiss Webster mice [5]; Mild deficit, interval 150 sec): 2/6 | subjects performing significantly above chance/total number of subjects (Swiss Webster mice [5]; Mild deficit, interval 180 sec): 1/6 | subjects performing significantly above chance/total number of subjects (Swiss Webster mice [5]; Mild deficit, interval 210 sec): 0/6 | subjects performing significantly above chance/total number of subjects (Swiss Webster mice [5]; [7]): 1/6 | subjects performing significantly above chance/total number of subjects (Swiss Webster mice [5]; [8]): 0/6 | subjects performing significantly above chance/total number of subjects (Swiss Webster mice [5]; [9]): 0/6 | subjects performing significantly above chance/total number of subjects (C57BL/6 mice [6]; Mild deficit, interval 60 sec): 7/8* | subjects performing significantly above chance/total number of subjects (C57BL/6 mice [6]; Mild deficit, interval 90 sec): 3/8 | subjects performing significantly above chance/total number of subjects (C57BL/6 mice [6]; Mild deficit, interval 120 sec): 2/8 | subjects performing significantly above chance/total number of subjects (C57BL/6 mice [6]; Mild deficit, interval 150 sec): 2/8 | subjects performing significantly above chance/total number of subjects (C57BL/6 mice [6]; Mild deficit, interval 180 sec): 2/8 | subjects performing significantly above chance/total number of subjects (C57BL/6 mice [6]; Mild deficit, interval 210 sec): 0/8 | subjects performing significantly above chance/total number of subjects (C57BL/6 mice [6]; Moderate deficit, interval 10 sec): 6/6 | subjects performing significantly above chance/total number of subjects (C57BL/6 mice [6]; [7]): 1/6 | subjects performing significantly above chance/total number of subjects (C57BL/6 mice [6]; [8]): 0/6 | subjects performing significantly above chance/total number of subjects (C57BL/6 mice [6]; [9]): 0/6 | prolongation of memory (C57BL/6 mice [6]; moderate deficit group, PHY): ineffective in the moderate group
